Calls of active or inactive are those of the source.
Experiments:
[1] = Trypanosoma cruzi growth suppression in host cells – NIH3T3 host cells, beta-gal luminescence, confirmation (AID 2044); format: functional, cell-based;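 also: intracellular parasites grown in NIH/3T3 mouse fibroblasts as host cells; luminescent beta-galactosidase reporter signal from transgenic T. cruzi replicating inside host cells; inhibitors lower the luminescence signal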
[2] = NIH3T3 cell viability loss – ATP luminescence, mouse fibroblasts, counter-screen, dose response (AID 2010); format: functional, cell-based;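 also: cells exposed to compound for about 90 hours before reading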
[3] = target: T1, Heat shock factor protein 1 (Mus musculus, UniProt P38532); assay: enhancement of HSF1-driven luciferase signal – cell-based, NIH3T3, luminescence, dose retest, confirmation (AID 435004); format: functional;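 also: stress induced by proteasome inhibitor MG132 added 30 min after compound; luciferase reporter driven by HSF1 response element in NIH3T3 cells; actives raise luminescence as potentiators of the MG132 stress response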
T1 sequence (P38532 whole entry): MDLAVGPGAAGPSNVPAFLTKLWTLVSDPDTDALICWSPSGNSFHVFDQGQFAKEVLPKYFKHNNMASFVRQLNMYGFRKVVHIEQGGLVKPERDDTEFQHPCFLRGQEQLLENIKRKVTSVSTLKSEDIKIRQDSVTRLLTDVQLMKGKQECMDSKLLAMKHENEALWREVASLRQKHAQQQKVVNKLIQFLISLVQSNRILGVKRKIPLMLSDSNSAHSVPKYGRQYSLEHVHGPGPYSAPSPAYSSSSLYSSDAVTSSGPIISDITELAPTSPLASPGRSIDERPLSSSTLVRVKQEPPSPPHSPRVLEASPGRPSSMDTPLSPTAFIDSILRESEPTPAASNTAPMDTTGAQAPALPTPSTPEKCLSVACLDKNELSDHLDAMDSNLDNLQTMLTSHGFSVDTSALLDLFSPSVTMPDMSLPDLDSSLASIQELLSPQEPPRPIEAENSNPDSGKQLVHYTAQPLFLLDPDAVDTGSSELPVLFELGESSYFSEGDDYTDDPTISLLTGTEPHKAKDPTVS

[4] = target: T2, Cytochrome P450 1A2 (Homo sapiens, UniProt P05177);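 also: PubChem cytochrome P450 panel assay, CYP1A2 panel member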
T2 sequence (P05177 whole entry): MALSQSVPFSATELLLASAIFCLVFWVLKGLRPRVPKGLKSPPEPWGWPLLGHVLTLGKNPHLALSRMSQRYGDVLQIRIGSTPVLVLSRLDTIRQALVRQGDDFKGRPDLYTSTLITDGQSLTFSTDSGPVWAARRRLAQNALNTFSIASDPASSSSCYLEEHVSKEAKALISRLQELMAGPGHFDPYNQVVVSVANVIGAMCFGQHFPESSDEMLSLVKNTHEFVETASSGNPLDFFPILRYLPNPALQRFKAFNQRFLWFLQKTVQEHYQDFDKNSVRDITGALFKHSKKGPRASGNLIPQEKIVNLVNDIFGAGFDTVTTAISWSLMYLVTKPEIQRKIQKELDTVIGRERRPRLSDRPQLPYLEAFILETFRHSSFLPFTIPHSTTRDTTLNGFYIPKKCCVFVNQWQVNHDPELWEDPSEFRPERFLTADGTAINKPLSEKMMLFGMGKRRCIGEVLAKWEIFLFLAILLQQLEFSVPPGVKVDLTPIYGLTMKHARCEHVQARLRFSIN

[5] = target: Cytochrome P450 2C19 (Homo sapiens, UniProt P33261); assay: Cytochrome panel assay with activity outcomes. Panel member name: p450-cyp2c19 Compounds with AC50 equal or less than 10 uM are considered active; format: functional
[6] = system: Streptococcus sp. 'group A'; assay: Streptococcus pyogenes SK(-)GAS viability under kanamycin – luminescence, BacTiterGlo, confirmation, counter-screen for streptokinase expression inhibitor project, dose response (AID 1900); format: functional, organism-based
[7] = target: T3, Streptokinase A (Streptococcus pyogenes serotype M1, UniProt P10520); assay: viability-normalized secreted streptokinase activity reduction – plasminogen activation absorbance, OD405, dose response (AID 1914); format: functional, Streptococcus pyogenes M1 GAS;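 also: secreted streptokinase activity via plasminogen activation per viability signal from cell pellet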
T3 sequence (P10520 whole entry): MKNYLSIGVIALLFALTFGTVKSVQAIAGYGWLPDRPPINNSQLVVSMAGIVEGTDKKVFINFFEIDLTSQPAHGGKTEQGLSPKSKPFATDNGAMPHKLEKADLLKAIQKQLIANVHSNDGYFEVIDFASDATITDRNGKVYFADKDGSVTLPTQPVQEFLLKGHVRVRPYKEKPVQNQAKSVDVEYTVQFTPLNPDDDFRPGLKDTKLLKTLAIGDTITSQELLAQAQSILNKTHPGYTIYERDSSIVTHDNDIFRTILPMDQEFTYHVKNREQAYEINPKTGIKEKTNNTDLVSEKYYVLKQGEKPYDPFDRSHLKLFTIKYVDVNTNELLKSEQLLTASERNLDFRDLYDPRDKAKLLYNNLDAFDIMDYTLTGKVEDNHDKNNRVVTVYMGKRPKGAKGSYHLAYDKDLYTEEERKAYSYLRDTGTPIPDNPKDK

[8] = system: Streptococcus; assay: GAS UMAA2166 growth inhibition – luminescence, BacTiterGlo, counter-screen for streptokinase expression inhibitor project, dose response (AID 1915); format: functional, organism-based;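 also: potency for reduction of bacterial viability or growth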
[9] = target: Cytochrome P450 3A4 (Homo sapiens, UniProt P08684);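 also: CYP3A4 tested as one member of a cytochrome P450 panel screen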
Chain of Cytochrome P450 3A4 (P08684 whole entry): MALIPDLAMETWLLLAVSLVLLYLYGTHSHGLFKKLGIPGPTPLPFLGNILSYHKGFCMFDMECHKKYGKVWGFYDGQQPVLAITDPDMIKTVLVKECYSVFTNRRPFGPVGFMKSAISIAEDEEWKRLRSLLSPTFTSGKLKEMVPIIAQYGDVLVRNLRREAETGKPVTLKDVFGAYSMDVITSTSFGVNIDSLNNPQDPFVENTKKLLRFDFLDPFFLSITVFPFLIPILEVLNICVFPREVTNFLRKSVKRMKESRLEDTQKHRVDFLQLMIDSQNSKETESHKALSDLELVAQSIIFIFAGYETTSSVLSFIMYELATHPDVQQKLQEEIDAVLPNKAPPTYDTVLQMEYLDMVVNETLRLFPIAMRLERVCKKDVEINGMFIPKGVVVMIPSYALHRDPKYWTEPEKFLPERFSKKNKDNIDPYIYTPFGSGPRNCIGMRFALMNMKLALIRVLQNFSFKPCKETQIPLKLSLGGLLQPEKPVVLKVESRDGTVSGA

Chain of Cytochrome P450 2C19 (P33261 whole entry): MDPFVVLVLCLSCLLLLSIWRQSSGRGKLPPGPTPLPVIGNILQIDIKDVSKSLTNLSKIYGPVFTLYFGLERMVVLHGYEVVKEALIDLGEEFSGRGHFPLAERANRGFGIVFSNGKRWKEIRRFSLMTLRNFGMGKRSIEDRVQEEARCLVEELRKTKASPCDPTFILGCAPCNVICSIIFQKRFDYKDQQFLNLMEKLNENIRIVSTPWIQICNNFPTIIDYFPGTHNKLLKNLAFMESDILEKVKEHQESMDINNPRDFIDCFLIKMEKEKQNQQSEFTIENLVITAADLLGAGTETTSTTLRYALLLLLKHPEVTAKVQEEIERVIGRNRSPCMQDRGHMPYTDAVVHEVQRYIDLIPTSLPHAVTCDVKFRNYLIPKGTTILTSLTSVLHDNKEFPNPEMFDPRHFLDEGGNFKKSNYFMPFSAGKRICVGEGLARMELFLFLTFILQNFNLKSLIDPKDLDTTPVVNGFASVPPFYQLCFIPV

Cc1nn2c(O)c3c(nc2c1-c1ccc(F)cc1)CCCC3
EC50 [1]: 451 nM (active)
EC50 [2]: 10.1 µM (active)

CC1(C)Cc2c(C#N)c(N3CCCC3)nc(-c3ccco3)c2CO1
EC50 [3]: > 260 µM (inactive)

N[C@H](Cc1ccc(Cl)cc1)C(=O)O
AC50 [4]: 2 µM (inconclusive)

O=C1[C@H]2[C@@H](c3ccc(Cl)cc3)N3C(=O)N(c4cccc(Br)c4)C(=O)[C@@]3(Cc3ccc(Cl)cc3)[C@H]2C(=O)N1C1CCCCC1
EC50 [1]: 1240 nM (active)
EC50 [2]: > 60 µM (not active)

Cn1c(=O)c2nc(CCCCC(=O)O)[nH]c2n(C)c1=O
AC50 [4]: 0.794 µM (inconclusive)
AC50 [5]: inconclusive

COC(=O)Cc1ccc(NC(=O)c2ccc(C)c(C)c2)cc1
EC50 [3]: 69.4 µM (active)

CC1=CC(=O)C2=C(C)C[C@@H](O)[C@@H]3[C@@H](OC(=O)[C@H]3C)[C@H]12
AC50 [4]: 25.1 µM (inconclusive)

Cc1cccc(C(=O)OC(C)CN2CCN(C)CC2)c1 (centres undefined)
EC50 [1]: 994 nM (active)
EC50 [2]: > 30 µM (not active)

O=C(Nc1nnc(C2CC2)s1)c1cc(S(=O)(=O)N2CCN(c3ccccc3)CC2)ccc1Cl
AC50 [4]: 11.2 µM (inconclusive)

O=C(Nc1cc(S(=O)(=O)N2CCOCC2)ccc1-n1cncn1)c1ccc(Cl)cc1
EC50 [1]: 2540 nM (active)
EC50 [2]: > 60 µM (not active)

O=C(Nc1ccc2c(c1)C(=O)OC2)c1ccc(Cl)cc1
EC50 [3]: > 260 µM (inactive)

Cn1cc(CNC(=O)c2sc3cccc(Cl)c3c2Cl)cn1
EC50 [3]: > 260 µM (inactive)

COc1ccc(-n2nc([N+](=O)[O-])c(NCCc3ccc(Cl)cc3)[n+]2[O-])cc1
EC50 [1]: 602 nM (active)
EC50 [2]: > 60 µM (not active)

COc1ccccc1CN1CCN(Cc2ccc(Cl)cc2)CC1
EC50 [1]: 439 nM (active)
EC50 [2]: > 60 µM (not active)

CC1(C)CC(c2nc(-c3ccc(Cl)cc3)cs2)CCS1 (centres undefined)
EC50 [6]: 9.13 µM (active)
EC50 [7]: 13.9 µM (active)
EC50 [8]: > 150 µM (not active)

CCCCOc1ccc(CSc2nc[nH]n2)cc1
EC50 [3]: 106 µM (active)

CCCCN(C(=O)/C=C/c1ccco1)c1c(N)n(CCC)c(=O)[nH]c1=O
EC50 [3]: > 260 µM (inactive)

CCOc1ccc2nc(N(CCN(CC)CC)C(=O)c3ccc([N+](=O)[O-])cc3)sc2c1
EC50 [1]: 184 nM (active)
EC50 [2]: > 60 µM (not active)

O=C(c1cccc(F)c1)N1CCC2(CCCN(c3cccc(-c4ccccc4)c3)C2)CC1
AC50 [4]: 15.8 µM (inconclusive)

CCOC(=O)Cn1c(S(=O)(=O)Cc2ccc(F)cc2)nc(-c2ccccc2)c1-c1ccccc1
EC50 [3]: > 260 µM (inactive)

COc1ccccc1NC(=O)C1=C(C)Nc2nc(-c3ccc(N(C)C)cc3)nn2C1c1ccncc1 (centres undefined)
AC50 [4]: 12.6 µM (inconclusive)

Cc1cccc(C)c1N1CCN(S(=O)(=O)c2ccc(F)cc2)CC1
EC50 [3]: > 260 µM (inactive)

COC(=O)C1(O)CC(CC(C)C)=NN1C(=O)c1ccccc1 (centres undefined)
EC50 [3]: > 260 µM (inactive)

Cc1ccc(C(CC(=O)c2ccco2)SCCO)cc1 (centres undefined)
AC50 [4]: 25.1 µM (inconclusive)

CCOc1ccc(NC(=O)Cn2nnc(C(=O)NCc3ccco3)c2N)cc1
EC50 [3]: > 260 µM (inactive)

O=S(=O)(NCC(c1cccnc1)N1CCN(c2ccccc2)CC1)c1cc(F)ccc1F (centres undefined)
EC50 [1]: 508 nM (active)
EC50 [2]: > 60 µM (not active)

CCn1c(C(=O)NCc2cccnc2)cc2sc(Cl)cc21
EC50 [1]: 1120 nM (active)
EC50 [2]: > 60 µM (not active)

CC(C)(C)c1cc2cccnc2n1Cc1cccc(F)c1
AC50 [4]: 12.6 µM (inconclusive)
AC50 [9]: 15.8 µM (inconclusive)
AC50 ([5]; read-out: AC50): 11.2 µM (inconclusive)

CCOC(=O)C(CCOc1cccc(CC)c1)C(=O)OCC
EC50 [3]: 59.6 µM (active)

COc1cccc(Nc2c3c(nc4c(-c5ccccc5)c(C)nn24)CCC3)c1
EC50 [6]: 15 µM (active)
EC50 [7]: 8.91 µM (active)
EC50 [8]: > 150 µM (not active)

COc1ccc(-c2c(C)nn3c(Cl)c(C)c(C)nc23)cc1
EC50 [3]: 108 µM (active)

CC1=C(C(=O)N2CCOCC2)C(c2c(C)cc(C)cc2C)NC(S)=N1 (centres undefined)
EC50 [3]: > 260 µM (inactive)

CCCSc1nc(C)cc(C)c1C(N)=O
AC50 [4]: 28.2 µM (inconclusive)

Cn1ccc(C(=O)N/N=C/c2ccncc2)n1
EC50 [3]: > 260 µM (inactive)

O=S(=O)(O)c1ccc(O)c2ncccc12
AC50 [4]: 0.631 µM (inconclusive)

CC1(C)Cc2c(C#N)c(N)n(-c3ccccc3)c(=S)c2CO1
EC50 [3]: > 260 µM (inactive)

COc1ccc2c(c1)N(C[C@@H](C)CN(C)C)c1ccccc1S2 [DEXTROMEPROMAZINE]
AC50 [4]: 15.8 µM (inconclusive)
AC50 [9]: 7.94 µM (inconclusive)

— ChEMBL document CHEMBL1201862, “PubChem BioAssay data set” (2004)
